Data set [1] can be described thus: average particle size and polydispersity index by dynamic light scattering. It counts as physicochemical. The settings on record: Fluc mRNA-loaded lipid nanoparticles. As to the method: The average particle size (number average value), ζ-average particle size, and polydispersity index (PdI) of the lipid nanoparticles in PBS(-) (pH 7.4), and the zeta potential in 10 mM HEPES buffer (pH 7.4) were measured using an analyzer "Zetasizer Nano ZS ZEN3600" (manufactured by Malvern) utilizing dynamic light scattering.

Data set [2] is described as follows: encapsulation rate of lipid nanoparticles (RiboGreen). It counts as physicochemical. The settings on record: Fluc mRNA-loaded lipid nanoparticles. How it is done:
The encapsulation rate of the lipid nanoparticles was determined by measuring the amount of encapsulated nucleic acid (mRNA) using RiboGreen (manufactured by Life Technologies), which is an RNAintercalator. The amount of mRNA was quantified based on a calibration curve prepared from a dilution series solution of mRNA at a known concentration.
Specifically, 10 mM HEPES buffer (pH 7.4), 10 w/v% Triton X-100, and RiboGreen were mixed at 978.8 µL, 20 µL, and 1.25 µL per 10 wells, respectively, to obtain a Triton(+) buffer. A Triton(-) buffer was obtained in replacing Triton X-100 with 10 mM HEPES buffer (pH 7.4). 100 µL/well of the sample was added to a black 96-well plate for fluorescence measurement, and 100 µL/well of Triton(+) buffer or Triton(-) buffer was added. After the plate was gently shaken on a shaking incubator (SI-300, manufactured by AS ONE) (700 rpm, 30 seconds), the fluorescence intensity of each well was measured using a microplate reader (VARIOSKAN LUX, manufactured by Thermo Fisher Scientific) (wavelength Ex/Em=500 nm/525 nm), and the nucleic acid encapsulation rate (%) was calculated.

For another data set, the system named is BALB/c mice. As to the kind of experiment: Fluc activity in tissues of mice administered with Fluc mRNA-loaded lipid nanoparticles. Type of data set: in vivo. How it is done: Lipid nanoparticles were administered to mice by intravenous injection into the tail vein using a 27G needle. Unless otherwise specified, BALB/c mice (4 to 5 weeks old, female) were used.
First, BALB/c mice (female, 4 weeks old) were intravenously injected with lipid nanoparticles encapsulating Fluc mRNA (Fluc mRNA-loaded lipid nanoparticles) at a dose of 0.01 mg mRNA/kg. Six hours after intravenous injection, the mice were euthanized, each tissue was collected, frozen in liquid nitrogen, and stored at -80°C. The tissues were homogenized in passive lysis buffer (manufactured by Promega) using a bead-type cell disruptor (Micro Smash MS-100R, manufactured by TOMY Seiko). Tissue debris was removed by centrifugation, and the supernatant was collected. Fluc activity in the supernatant was measured using the Luciferase Assay System (E1500, manufactured by Promega) according to the manufacturer's protocol. Luminescence was measured using a luminometer (Luminescencer-PSN, manufactured by ATTO). Protein concentration was determined using a commercially available assay kit (BCA Protein Assay Kit, manufactured by Pierce). Fluc activity was expressed as relative light units (RLU) per mg of protein.
Specifically, first, each lipid nanoparticle was intravenously administered into the tail vein of mice in an amount of 0.2 mg/kg of Fluc mRNA, and 6 hours after administration of the lipid nanoparticles, about 50 mg each of the liver, spleen, lung, heart, brain, and muscle was collected and stored frozen. 500 µL of passive lysis buffer (manufactured by Promega) was added to each tube containing the collected organ. The liver was homogenized at 4000 rpm for 20 seconds twice, the spleen, kidney, lung, and heart were homogenized at 5000 rpm for 20 seconds twice, and the muscle was homogenized at 5000 rpm for 20 seconds four times; then, the homogenate was centrifuged at 13000 rpm at 4°C for 10 minutes, and the supernatant was collected as a sample for measurement. The liver and spleen were diluted 100 times with passive lysis buffer. 50 µL of a measurement sample (tissue supernatant) was mixed with 50 µL of luciferase assay buffer of the Luciferase Assay System (E1500, manufactured by Promega) previously added in a test tube by pipetting, and the amount of luminescence was measured with a luminometer. Protein concentration was determined using a commercially available assay kit (BCA Protein Assay Kit, manufactured by Pierce). Fluc activity was expressed as relative light units (RLU) per mg of protein.

[3] abbreviates: TOT/DSPC/chol/PEG-DMG=65/15/20/1.5 (mol%).
[4] abbreviates: Example 16, TOT/DSPC/chol/PEG-DMG=65/15/20/1.5 (mol%), i.v. tail vein.
[5] abbreviates: Example 33, TOT/DSPC/chol/PEG-DMG=65/15/20/1.5, control CL4F6/DSPC/chol/PEG-DMG=50/10/40/1.5 (mol%), i.v. tail vein.
The mark [6] stands for this setting: TOT-4/DSPC/chol/PEG-DMG=65/15/20/1.5, CL4F6/DSPC/chol/PEG-DMG=50/10/40/1.5 (mol%).
The mark [7] stands for this setting: Example 15, TOT-4/PC/chol/PEG-DMG=65/15/20/1 (mol%), PC = DSPC, i.v. tail vein.

With `CCCCCCCC/C=C\CCCCCCCC(=O)OCC(COC(=O)CCCCCCC/C=C\CCCCCCCC)(COC(=O)CCCCCCC/C=C\CCCCCCCC)NC(=O)CCCN(C)C` [TOT-2, 2-(4-(dimethylamino)butanamido)-2-((oleoyloxy)methyl)propane-1,3-diyl dioleate], in data set [1] (setting [3]), the PdI was 0.347 and the “ζ-Average Particle Size” value is 166.2 nm. For the same compound, the “Encapsulation Rate” value in data set [2] (setting [3]) is 92.3%. The “Fluc activity (RLU/mg protein) in the liver” value with BALB/c mice (setting [4]) is on record as “confirmed in the liver in all the mice except for those administered with Fluc mRNA-loaded lipid nanoparticles using TOT-2”. The “luciferase activity in the lung compared with control mice (CL4F6-containing lipid nanoparticles)” value in the data set with BALB/c mice (setting [5]) is listed as “higher”.

For `CCCCCCCC/C=C\CCCCCCCC(=O)OCC(COC(=O)CCCCCCC/C=C\CCCCCCCC)(COC(=O)CCCCCCC/C=C\CCCCCCCC)NC(=O)C1CCN(C(C)C)CC1` [TOT-19, 2-(1-isopropylpiperidine-4-carboxamide)-2-((oleoyloxy)methyl)propane-1,3-diyl dioleate], in data set [1] (setting [3]), the PdI is on record as 0.261 and the “ζ-Average Particle Size” value is given as 142.6 nm. Besides, the “Encapsulation Rate” value in data set [2] (setting [3]) is recorded as 92.2%. In addition, in the data set on BALB/c mice (setting [5]), the “luciferase activity in the heart compared with control mice (CL4F6-containing lipid nanoparticles)” value is “very high”, the “luciferase activity in the lung compared with control mice (CL4F6-containing lipid nanoparticles)” value is on record as “highest” and the “luciferase activity in the muscle compared with control mice (CL4F6-containing lipid nanoparticles)” value is “very high”.

On to `CCCCCCCC/C=C\CCCCCCCC(=O)OCC(COC(=O)CCCCCCC/C=C\CCCCCCCC)(COC(=O)CCCCCCC/C=C\CCCCCCCC)NC(=O)CNC` [TOT-7, 2-(2-(methylamino)acetamido)-2-((oleoyloxy)methyl)propane-1,3-diyl dioleate], for which, in data set [1] (setting [3]), the PdI came to 0.232 and the “ζ-Average Particle Size” value was 128.0 nm. Further, the “Encapsulation Rate” value in data set [2] (setting [3]) was 92.4%. Further, the “luciferase activity in the heart compared with control mice (CL4F6-containing lipid nanoparticles)” value in the data set with BALB/c mice (setting [5]) is “higher”.

Turning to `CCCCCCCC/C=C\CCCCCCCC(=O)OCC(COC(=O)CCCCCCC/C=C\CCCCCCCC)(COC(=O)CCCCCCC/C=C\CCCCCCCC)NC(=O)CCN(C)C` [TOT-1, 2-(3-(dimethylamino)propanamido)-2-((oleoyloxy)methyl)propane-1,3-diyl dioleate], in data set [1] (setting [3]), the PdI was 0.324 and the “ζ-Average Particle Size” value was found to be 138.0 nm. Also, the “Encapsulation Rate” value in data set [2] (setting [3]) was 85.9%.

With `CCCCCCCC/C=C\CCCCCCCC(=O)OCC(COC(=O)CCCCCCC/C=C\CCCCCCCC)(COC(=O)CCCCCCC/C=C\CCCCCCCC)NC(=O)CCN(CC)CC` [TOT-4, 2-(3-(diethylamino)propanamido)-2-((oleoyloxy)methyl)propane-1,3-diyl dioleate], in data set [1] (setting [3]), the PdI came to 0.157 and the “ζ-Average Particle Size” value was 134.3 nm. Besides, in data set [1] (setting [6]), the “Number Average Particle Size” value is reported as 33.5 nm and the “ζ-Average Particle Size” value worked out at 134.3 nm. The “Encapsulation Rate” value in data set [2] (setting [3]) worked out at 83.5%. In data set [2] (setting [6]), the “Encapsulation Rate” value came to 0.157%. For the same compound, the “Fluc activity (RLU/mg protein) in the liver and spleen” value in the data set on BALB/c mice (Example 13, TOT/DOPE/chol/PEG-DMG=60/15/25/1.0 (mol%), i.v. tail vein) is given as “very high”. The “Fluc activity in the spleen compared with the liver” value in the data set with BALB/c mice (Example 15, TOT-4/PC/chol/PEG-DMG=65/15/20/1 (mol%), PC = DPPC, i.v. tail vein) is listed as “higher Fluc activity in the spleen than in the liver”. For the same compound, the “Fluc activity (RLU/mg protein) in the liver and spleen” value in the data set with BALB/c mice (Example 15, TOT-4/PC/chol/PEG-DMG=65/15/20/1 (mol%), PC = DSPC, DPPC, POPC, or DOPC, i.v. tail vein) is “confirmed”. In the data set with BALB/c mice (setting [7]), the “Fluc activity (RLU/mg protein) in the liver” value was “relatively suppressed” and the “Fluc activity in the spleen compared with the liver” value was “higher Fluc activity in the spleen than in the liver”. Also, in the data set on BALB/c mice (setting [4]), the “Fluc activity (RLU/mg protein) in the spleen” value is listed as “very high”. The “gene expression in the spleen, times higher than Fluc mRNA-loaded lipid nanoparticles using RNA-LPX” value with BALB/c mice (Example 17, TOT-4/DSPC/chol/PEG-DMG=65/15/20/1.5 (mol%) versus RNA-LPX (DOTMA/DOPE=50/50 mol%), i.v. tail vein) was found to be 24 times. Also, the “gene expression in the spleen and liver” value in the data set on BALB/c mice (Example 18, TOT-4/DSPC/chol/PEG-DMG=65/15/20/1.5 (mol%), similar to CL4F6/DSPC/chol/PEG-DMG=50/10/40/1.5, i.v. tail vein) is “high”. The “luciferase activity in the spleen, lung, brain, heart, and muscle compared with CL4F6-containing lipid nanoparticles” value with BALB/c mice (Example 19, TOT-4/DSPC/chol/PEG-DMG=65/15/20/1.5 versus CL4F6/DSPC/chol/PEG-DMG=50/10/40/1.5 (mol%), i.v. 0.2 mg/kg of Fluc mRNA, 6 hours, N=3) is “higher”. In the data set on BALB/c mice (Example 33, TOT/DSPC/chol/PEG-DMG=65/15/20/1.5 (mol%), i.v. tail vein), the “luciferase activity in the brain” value is listed as “remarkably high”. Further, in the data set on BALB/c mice (setting [5]), the “luciferase activity in the heart compared with control mice (CL4F6-containing lipid nanoparticles)” value is reported as “very high”, the “luciferase activity in the lung compared with control mice (CL4F6-containing lipid nanoparticles)” value is listed as “higher”, the “luciferase activity in the muscle compared with control mice (CL4F6-containing lipid nanoparticles)” value is reported as “very high” and the “luciferase activity in the spleen compared with control mice (CL4F6-containing lipid nanoparticles)” value is listed as “higher”.

`CCCCCCCC/C=C\CCCCCCCC(=O)OCC(COC(=O)CCCCCCC/C=C\CCCCCCCC)(COC(=O)CCCCCCC/C=C\CCCCCCCC)NC(=O)C1CCN(C)C1` (stereo not shown) [TOT-20, 2-(1-methylpyrrolidine-3-carboxamide)-2-((oleoyloxy)methyl)propane-1,3-diyl dioleate]: in data set [1] (setting [3]), the PdI is reported as 0.263 and the “ζ-Average Particle Size” value came out at 201.8 nm. Besides, the “Encapsulation Rate” value in data set [2] (setting [3]) is recorded as 94.7%.

“7-(4-(diisopropylamino)butyl)-13-((2-hexylnonanoyl)oxy)-7-hydroxytridecyl 2-hexyldecanoate [CL4F6, reference compound]”: in data set [1] (setting [6]), the “Number Average Particle Size” value amounted to 59.4 nm, the PdI was 99.0 and the “ζ-Average Particle Size” value came to 90.7 nm.

Regarding `CCCCCCCC/C=C\CCCCCCCC(=O)OCC(COC(=O)CCCCCCC/C=C\CCCCCCCC)(COC(=O)CCCCCCC/C=C\CCCCCCCC)NC(=O)C1CCN(CC)CC1` [TOT-18, 2-(1-ethylpiperidine-4-carboxamide)-2-((oleoyloxy)methyl)propane-1,3-diyl dioleate], in data set [1] (setting [3]), the PdI stood at 0.319 and the “ζ-Average Particle Size” value is listed as 130.0 nm. The “Encapsulation Rate” value in data set [2] (setting [3]) came out at 92.2%. Besides, in the data set on BALB/c mice (setting [5]), the “luciferase activity in the lung compared with control mice (CL4F6-containing lipid nanoparticles)” value is on record as “higher” and the “luciferase activity in the muscle compared with control mice (CL4F6-containing lipid nanoparticles)” value is recorded as “very high”.

Consider `CCCCCCCC/C=C\CCCCCCCC(=O)OCC(COC(=O)CCCCCCC/C=C\CCCCCCCC)(COC(=O)CCCCCCC/C=C\CCCCCCCC)NC(=O)CN` [TOT-6, 2-(2-aminoacetamido)-2-((oleoyloxy)methyl)propane-1,3-diyl dioleate], for which, in data set [1] (setting [3]), the PdI was found to be 0.190 and the “ζ-Average Particle Size” value worked out at 102.5 nm. In addition, in data set [2] (setting [3]), the “Encapsulation Rate” value turned out to be 95.4%.

For `CCCCCCCC/C=C\CCCCCCCC(=O)OCC(COC(=O)CCCCCCC/C=C\CCCCCCCC)(COC(=O)CCCCCCC/C=C\CCCCCCCC)NC(=O)[C@@H](N)CO` [TOT-8, 2-((S)-2-amino-3-hydroxypropanamido)-2-((oleoyloxy)methyl)propane-1,3-diyl dioleate], in data set [1] (setting [3]), the PdI is 0.213 and the “ζ-Average Particle Size” value is recorded as 87.1 nm. Further, the “Encapsulation Rate” value in data set [2] (setting [3]) is given as 85.7%.

The values are drawn from patent EP4559896A1, “PH-SENSITIVE CATIONIC LIPID AND LIPID NANOPARTICLE” (National University Corporation Hokkaido University, priority 2022, dated 2024).
